Experimental data as given in ChEMBL document CHEMBL5634176, “Expression of Syo_1.56 SARP Regulator Unveils Potent Elasnin Derivatives with Antibacterial Activity” (J Nat Prod, 2024).
In brackets after ≈: the same amount, converted by molar mass. Activity calls are given as the source filed them. The rule behind the calls is not given here.

Key:
Staphylococcus aureus [1] = experiment: Antibacterial activity against methicillin resistant Staphylococcus aureus 92-1191 by CLSI protocol based assay; type: functional
Staphylococcus aureus [2] = experiment: Antibacterial activity against methicillin resistant Staphylococcus aureus NCTC8173 by CLSI protocol based assay; type: functional
[3] = Cytotoxicity against human HL-60 cells incubated for 48 hrs by WST-8 assay; type: toxicity, cell-based
[4] = Inhibition of metallo-beta lactamase (unknown origin) by nitrocefin method; set-up: species or system Bacteria
Staphylococcus aureus [5] = experiment: Antibacterial activity against methicillin sensitive Staphylococcus aureus FDA209P by CLSI protocol based assay; type: functional
Staphylococcus aureus [6] = experiment: Antibacterial activity against methicillin resistant Staphylococcus aureus ATCC BAA-1718 by CLSI protocol based assay; type: functional
Plasmodium falciparum = experiment: Antimalarial activity against Plasmodium falciparum 3D7 infected in human erythrocytes measured after 72 hrs by absorbance based analysis; type: functional, organism-based; conditions: 3D7, 72 h
Staphylococcus aureus [7] = experiment: Antibacterial activity against methicillin resistant Staphylococcus aureus ATCC BAA-1717 by CLSI protocol based assay; type: functional
Escherichia coli [8] = experiment: Antibacterial activity against Escherichia coli HO141 incubated for 24 hrs by absorbance based analysis; type: functional, organism-based; conditions: HO141, 24 h
Staphylococcus aureus [9] = experiment: Antibacterial activity against Staphylococcus aureus 209 incubated for 24 hrs by absorbance based analysis; type: functional, organism-based; conditions: Staphylococcus aureus, 209, 24 h
[10] = Cytotoxicity against human HeLa cells incubated for 48 hrs by WST-8 assay; type: toxicity, cell-based
Escherichia coli [11] = experiment: Potentiation of meropenem induced antibacterial activity against drug-resistant Escherichia coli KB366 expressing metallo-betalactamase by agar disk diffusion method; type: functional, organism-based

SMILES	MIC (Staphylococcus aureus [1]) [µg/mL]	MIC (Staphylococcus aureus [2]) [µg/mL]	IC50 at 48 h [3] [µg/mL]	IC50 [4] [µM]	MIC (Staphylococcus aureus [5]) [µg/mL]	MIC (Staphylococcus aureus [6]) [µg/mL]	IC50 (Plasmodium falciparum) [µg/mL]	MIC (Staphylococcus aureus [7]) [µg/mL]	IC50 (Escherichia coli [8]) [µg/mL]	IC50 (Staphylococcus aureus [9]) [µg/mL]	IC50 at 48 h [10] [µg/mL]	Activity (Escherichia coli [11])
CCCCCCc1c(O)c(CCCC)c([C@H](CCCC)C(=O)CCCCC)oc1=O	2.5 (≈ 5.94 µM)	2.5 (≈ 5.94 µM)	8.4 (≈ 20 µM)	> 100	2.5 (≈ 5.94 µM)	2.5 (≈ 5.94 µM)	8 (≈ 19 µM)	2.5 (≈ 5.94 µM)	> 10	0.8 (≈ 1.9 µM)	7.6 (≈ 18.1 µM)	–
CCCCc1c([C@H](CCC(C)C)C(=O)CCCC(C)C)oc(=O)c(CCCC)c1O	5 (≈ 11.9 µM)	2.5 (≈ 5.94 µM)	9.3 (≈ 22.1 µM)	> 100	5 (≈ 11.9 µM)	2.5 (≈ 5.94 µM)	7.7 (≈ 18.3 µM)	2.5 (≈ 5.94 µM)	> 10	0.5 (≈ 1.19 µM)	8.9 (≈ 21.2 µM)	–
CCCCc1c([C@H](CCCC)C(=O)CCCC(C)C)oc(=O)c(CCC(C)C)c1O	6 (≈ 14.3 µM)	3 (≈ 7.13 µM)	8.4 (≈ 20 µM)	15.3	3 (≈ 7.13 µM)	3 (≈ 7.13 µM)	0.1 (≈ 0.238 µM)	3 (≈ 7.13 µM)	> 10	1.1 (≈ 2.62 µM)	8.4 (≈ 20 µM)	inactive
CCCCCC(=O)[C@@H](CCCC)c1oc(=O)c(CC(C)C)c(O)c1CCCC	20 (≈ 50.9 µM)	10 (≈ 25.5 µM)	> 10	> 100	10 (≈ 25.5 µM)	10 (≈ 25.5 µM)	> 10	10 (≈ 25.5 µM)	> 10	1.6 (≈ 4.08 µM)	> 10	–
CCCCCC(=O)[C@@H](CCCC)c1oc(=O)c(CCC(C)C)c(O)c1CCCC	6 (≈ 14.8 µM)	3 (≈ 7.38 µM)	4.9 (≈ 12.1 µM)	10.8	6 (≈ 14.8 µM)	3 (≈ 7.38 µM)	1.3 (≈ 3.2 µM)	6 (≈ 14.8 µM)	> 10	0.7 (≈ 1.72 µM)	7.3 (≈ 18 µM)	inactive
CCCCCc1oc(=O)c(CCCC)c(O)c1CCCC	15 (≈ 50.9 µM)	15 (≈ 50.9 µM)	> 10	> 100	15 (≈ 50.9 µM)	15 (≈ 50.9 µM)	1.9 (≈ 6.45 µM)	15 (≈ 50.9 µM)	> 10	1.3 (≈ 4.42 µM)	> 10	–
CCCCCC(=O)[C@@H](CCCC)c1oc(=O)c(CCCC)c(O)c1CCCC	5 (≈ 12.7 µM)	5 (≈ 12.7 µM)	> 10	24.1	5 (≈ 12.7 µM)	5 (≈ 12.7 µM)	2.3 (≈ 5.86 µM)	5 (≈ 12.7 µM)	> 10	0.7 (≈ 1.78 µM)	> 10	inactive
CCCCc1c(O)c(CCC(C)C)c([C@H](CCCC)C(=O)CCCC(C)C)oc1=O	2.5 (≈ 5.94 µM)	2.5 (≈ 5.94 µM)	5.5 (≈ 13.1 µM)	> 100	2.5 (≈ 5.94 µM)	2.5 (≈ 5.94 µM)	6.3 (≈ 15 µM)	2.5 (≈ 5.94 µM)	> 10	0.5 (≈ 1.19 µM)	6.3 (≈ 15 µM)	–
CCCCc1c(CCCC(C)C)oc(=O)c(CCCC)c1O	15 (≈ 48.6 µM)	7.5 (≈ 24.3 µM)	> 10	> 100	15 (≈ 48.6 µM)	7.5 (≈ 24.3 µM)	> 10	7.7 (≈ 25 µM)	> 10	1.3 (≈ 4.21 µM)	> 10	–
CCCCCCCc1oc(=O)c(CCCC)c(O)c1CCCC	8.1 (≈ 25.1 µM)	8.1 (≈ 25.1 µM)	> 10	> 100	16 (≈ 49.6 µM)	8.1 (≈ 25.1 µM)	0.1 (≈ 0.31 µM)	16 (≈ 49.6 µM)	> 10	2.6 (≈ 8.06 µM)	> 10	–
C[C@@H](O)[C@H]1C(=O)N2C(C(=O)O)=C(S[C@@H]3CN[C@H](C(=O)N(C)C)C3)[C@H](C)[C@H]12 [MEROPENEM]	256 (≈ 668 µM)	0.125 (≈ 0.326 µM)	–	–	0.031 (≈ 0.0808 µM)	0.125 (≈ 0.326 µM)	–	16 (≈ 41.7 µM)	–	–	–	–
CCCCc1c([C@H](CCCC)C(=O)CCC(C)C)oc(=O)c(CCCC)c1O	10 (≈ 25.5 µM)	5 (≈ 12.7 µM)	> 10	> 100	10 (≈ 25.5 µM)	5 (≈ 12.7 µM)	9.4 (≈ 23.9 µM)	5 (≈ 12.7 µM)	> 10	1 (≈ 2.55 µM)	> 10	–
C[C@H](CS)C(=O)N1CCC[C@H]1C(=O)O [CAPTOPRIL]	–	–	–	69	–	–	–	–	–	–	–	–
CCCCCC(=O)[C@@H](CCC(C)C)c1oc(=O)c(CCCC)c(O)c1CCCC	5 (≈ 12.3 µM)	2.5 (≈ 6.15 µM)	9.7 (≈ 23.9 µM)	> 100	5 (≈ 12.3 µM)	5 (≈ 12.3 µM)	6.9 (≈ 17 µM)	2.5 (≈ 6.15 µM)	> 10	0.5 (≈ 1.23 µM)	9.7 (≈ 23.9 µM)	–
